# Laboratory results: patent US8383786B2, “Pesticidal compositions” (Dow AgroSciences, LLC., priority 2009, dated 2013)
# Experiments:
# [1] = system: beet armyworm (BAW; Spodoptera exigua: Lepidoptera); experiment: 96-well microtiter plate-based high throughput (HTS) bioassay on beet armyworm (BAW HTS); type: in vivo; settings: 96-well plate; 12 μg test compound on 100 μL diet; BAW eggs; 29° C.; 6 days post-treatment; average of six replicates
# Procedure: (§1) Bioassays on beet armyworm (BAW; Spodoptera exigua: Lepidoptera) were conducted using either a 96-well microtiter plate-based high throughput (HTS) bioassay or a 128-well diet tray assay. The HTS assay is a based on a modification of Lewer et al. J. Nat. Prod. 2006, 69, 1506. BAW eggs were placed on top of artificial diet (100 microliters (μL)) in each well of 96-well microtiter plate. The diet was pretreated with test compounds (12 micrograms (μg) dissolved in 30 μL of DMSO-acetone-water mixture) layered on top of the diet using a liquid handling system and then allowed to dry for several hours. Infested plates were then covered with a layer of sterile cotton batting and the plate lid, and then held in the dark at 29° C. Mortality was recorded at 6 days (d) post-treatment. Each plate had six replicates. The percent mortality was calculated from the average of the six replicates. In the case of the 128-well diet assay, three to five second instar BAW larvae were placed in each well (3 mL) of the diet tray that had been previously filled with 1 mL of artificial diet to which 50 ug/cm^2 of the test compound (dissolved in 50 μL of 90:10 acetone/water mixture) had been applied (to each of eight wells) and then allowed to dry. Trays were covered with a clear self-adhesive cover, and held at 25° C., 14:10 light:dark for six days. Percent mortality was recorded for the larvae in each well; activity in the eight wells was then averaged. In Table 2 under both the BAW HTS and the BAW 50 headings, an “A” means that the compound was tested and at least 50 percent mortality was observed whereas, “B” means that either (1) the compound was tested and less than 50 percent mortality was observed or (2) the compound was not tested.
# [2] = system: beet armyworm (BAW; Spodoptera exigua: Lepidoptera); experiment: 128-well diet tray assay on beet armyworm (BAW 50); type: in vivo; settings: 144 h, 50 ug/cm^2 of test compound on diet, second instar BAW larvae, 25° C., six days, average of eight wells, read-out: BAW 50 (percent mortality)
# Procedure: as §1
Structure (SMILES),BAW HTS (percent mortality) [1],mortality at 50 µg/cm2 [2]
"CO[C@@H]1[C@@H](OC)[C@H](C)O[C@@H](OC2Cc3ccc(-c4ccnc(-c5cccnc5)n4)cc3C2)[C@@H]1OC (stereo partly drawn) [Compound 6C, 2-Pyridin-3-yl-4-[2-((2R,3R,4R,5S,6S)-3,4,5-trimethoxy-6-methyl-tetrahydropyran-2-yloxy)-indan-5-yl]-pyrimidine]",B (either (1) the compound was tested and less than 50 percent mortality was observed or (2) the compound was not tested),< 50%
"CO[C@@H]1[C@@H](OC)[C@H](C)O[C@@H](OC2Cc3ccc(-c4ccnc(-c5cccc(C(F)(F)F)c5)n4)cc3C2)[C@@H]1OC (stereo partly drawn) [Compound 3C, 2-(3-Trifluoromethylphenyl)-4-[2-((2R,3R,4R,5S,6S)-3,4,5-trimethoxy-6-methyl-tetrahydropyran-2-yloxy)-indan-5-yl]-pyrimidine]",B (either (1) the compound was tested and less than 50 percent mortality was observed or (2) the compound was not tested),> 50%
"CO[C@@H]1[C@@H](OC)[C@H](C)O[C@@H](OC2Cc3ccc(-c4ccnc(-c5ccc(C(F)(F)F)cc5)n4)cc3C2)[C@@H]1OC (stereo partly drawn) [Compound 4C, 2-(4-Trifluoromethylphenyl)-4-[2-((2R,3R,4R,5S,6S)-3,4,5-trimethoxy-6-methyl-tetrahydropyran-2-yloxy)-indan-5-yl]-pyrimidine]",B (either (1) the compound was tested and less than 50 percent mortality was observed or (2) the compound was not tested),> 50%
"CO[C@@H]1[C@@H](OC)[C@H](C)O[C@@H](OC2Cc3ccc(-c4ccn(-c5ccc(C(F)(F)F)cn5)n4)cc3C2)[C@@H]1OC (stereo partly drawn) [Compound 8C, 5-trifluoromethyl-2-{3-[2-((2R,3R,4R,5S,6S)-3,4,5-trimethoxy-6-methyl-tetrahydropyran-2-yloxy)-indan-5-yl]-pyrazol-1-yl}-pyridine]",A (the compound was tested and at least 50 percent mortality was observed),> 50%
"CO[C@@H]1[C@@H](OC)[C@H](C)O[C@@H](OC2Cc3ccc(-c4ccnc(-c5ccc(Cl)cc5Cl)n4)cc3C2)[C@@H]1OC (stereo partly drawn) [Compound 2C, 2-(2,4-Dichlorophenyl)-4-[2-((2R,3R,4R,5S,6S)-3,4,5-trimethoxy-6-methyl-tetrahydropyran-2-yloxy)-indan-5-yl]-pyrimidine]",A (the compound was tested and at least 50 percent mortality was observed),< 50%
"CO[C@@H]1[C@@H](OC)[C@H](C)O[C@@H](OC2Cc3ccc(-c4ccn(-c5nnc(C(F)(F)F)s5)n4)cc3C2)[C@@H]1OC (stereo partly drawn) [Compound 9C, 2-trifluoromethyl-5-{3-[2-((2R,3R,4R,5S,6S)-3,4,5-trimethoxy-6-methyl-tetrahydropyran-2-yloxy)-indan-5-yl]-pyrazol-1-yl}-[1,3,4]thiadiazole]",A (the compound was tested and at least 50 percent mortality was observed),> 50%
CO[C@@H]1[C@@H](OC)[C@H](C)O[C@@H](OC2Cc3ccc(-c4ccn(-c5ccc(OC(F)(F)C(F)(F)F)cc5)n4)cc3C2)[C@@H]1OC (some centres unmarked) [Compound 10C],A (the compound was tested and at least 50 percent mortality was observed),> 50%
"CO[C@@H]1[C@@H](OC)[C@H](C)O[C@@H](OC2Cc3ccc(-c4ccnc(-c5ccc(Cl)cc5)n4)cc3C2)[C@@H]1OC (stereo partly drawn) [Compound 1C, 2-(4-Chlorophenyl)-4-[2-((2R,3R,4R,5S,6S)-3,4,5-trimethoxy-6-methyl-tetrahydropyran-2-yloxy)-indan-5-yl]-pyrimidine]",B (either (1) the compound was tested and less than 50 percent mortality was observed or (2) the compound was not tested),> 50%
"CO[C@@H]1[C@@H](OC)[C@H](C)O[C@@H](OC2Cc3ccc(-c4ccnc(-c5ccccc5)n4)cc3C2)[C@@H]1OC (stereo partly drawn) [Compound 7C, 2-Phenyl-4-[2-((2R,3R,4R,5S,6S)-3,4,5-trimethoxy-6-methyl-tetrahydropyran-2-yloxy)-indan-5-yl]-pyrimidine]",B (either (1) the compound was tested and less than 50 percent mortality was observed or (2) the compound was not tested),< 50%
"COc1ccc(-c2nccc(-c3ccc4c(c3)CC(O[C@@H]3O[C@@H](C)[C@H](OC)[C@@H](OC)[C@H]3OC)C4)n2)cc1 (stereo partly drawn) [Compound 5C, 2-(4-methoxyphenyl)-4-[2-((2R,3R,4R,5S,6S)-3,4,5-trimethoxy-6-methyl-tetrahydropyran-2-yloxy)-indan-5-yl]-pyrimidine]",A (the compound was tested and at least 50 percent mortality was observed),> 50%
